In US12378221B2, “Salts of obicetrapib and processes for their manufacture and intermediates thereof” (NewAmsterdam Pharma B.V., priority 2022, dated 2025):
Structures can show the parent of a compound that is named as a salt.

Columns and labels:
[1] = Physical stability at 70° C./75% relative humidity, by XRPD; assay type: physicochemical
Excerpt: FIG. 6 is a plot of x-ray powder diffraction pattern taken of crystalline obicetrapib hemicalcium, and FIG. 7 is a plot of x-ray powder diffraction patterns taken of crystalline obicetrapib hemicalcium under stress conditions. In FIG. 7, there are four diffraction patterns shown based on stability study set forth in Example 27. Pattern 1 is an x-ray powder diffraction pattern of a sample of amorphous obicetrapib hemicalcium. Pattern 2 is the x-ray powder diffraction pattern of a sample of crystalline obicetrapib hemicalcium. In pattern 3, the sample of crystalline obicetrapib hemicalcium was exposed to 70° C. at 75% relative humidity for one day. […] was taken before the sample was placed on stability.
XRPD was performed with Panalytical X'Pert^3 Powder diffractometer using an incident beam of Cu radiation produced using an Empyran tube, fine focused source, on a silicon zero-background holder. […] Approximately 5 to 10 mg of sample was placed on a silicon zero-background holder and flattened manually using an aluminum spatula to minimize difference in the overall sample height. The holder was then loaded on the instrument for analysis. The XRPD parameters used are listed in Table 10.
Stability study was conducted on crystalline and amorphous forms of obicetrapib at 70° C./75% relative humidity (RH). The solids were placed into a 4.0 ml glass vial without caps (open condition) and stored at 70° C./75% RH. […] The solids were analyzed by XRPD for physical stability and by HPLC for chemical purity. The sample collected at each time point was dissolved in methanol before HPLC analysis. In order to minimize the effect of potential analyte adsorption on the filter, the initial 0.5 mL of supernatant passing through the filter was discarded prior to collecting sample for HPLC analysis. Purity for each sample was determined based on peak area percent and compared to the sample at T=0.

[2] = Moisture uptake / hygroscopicity; assay type: physicochemical
Excerpt: When exposed to relative humidities approaching 90%, moisture uptake has been measured to be typically less than about 5% for example. […] Other drawbacks commonly associated with manufacturing and using amorphous materials are similarly not present. For example, amorphous materials are often challenging to make chemically pure.

[3] = Loss of crystallinity on drying, by XRPD (FIG. 18); assay type: physicochemical; conditions: 48 hours at 55° C. at a pressure of 2 mbar
Procedure: Upon stress, crystalline obicetrapib HCl loses its crystallinity. In FIG. 18, pattern 2 reflects crystalline obicetrapib HCl subject to a mild drying treatment whereby surface solvent was removed and it can be seen that this compound is crystalline. By comparison, the sample whose x-ray powder diffraction was measured in pattern 1 was subject to a stronger drying treatment at 48 hours at 55° C. at a pressure of 2 mbar. […] The amorphous pattern, therefore, represents HCl obicetrapib which is not crystalline obicetrapib. It may be obicetrapib, but is believed to have HCl associated with the obicetrapib as a solvate and thus is HCl obicetrapib, but with a lower chloride content than typically found in the ranges found for crystalline obicetrapib HCl. In some embodiments, that chloride content is less than 0.1% by weight such as between about 0.01% and 0.1% by weight.
Diffraction patterns were measured using a Thermo Fisher Scientific ARL Equinox 1000 powder diffractometer. The diffractometer is equipped with a copper source and a germanium (111) monochromator providing monochromatic Cu Kα1 radiation, and a position sensitive gas-ionization detector.
Samples were measured in reflection mode using an A1 sample holder without any further preparation (i.e., grinding). […]

[4] = Solubility in water at 20° C.; assay type: physicochemical
Excerpt: Solubility is especially challenging with obicetrapib. […] It would be desirable to have a solid form of obicetrapib that would deliver a larger amount of obicetrapib.

[5] = clinical studies; cited from earlier work
[6] = biological target: T1, Cholesterol Ester Transfer Protein (CETP) (Homo sapiens, UniProt P11597); conditions: repeated daily dosages (once a day) as low as 2.5 mg; cited from earlier work
T1 construct: CETP is a plasma protein secreted primarily by liver and adipose tissue; host or cells: endogenous plasma CETP of dosed clinical-study subjects
T1 sequence (P11597 18-493): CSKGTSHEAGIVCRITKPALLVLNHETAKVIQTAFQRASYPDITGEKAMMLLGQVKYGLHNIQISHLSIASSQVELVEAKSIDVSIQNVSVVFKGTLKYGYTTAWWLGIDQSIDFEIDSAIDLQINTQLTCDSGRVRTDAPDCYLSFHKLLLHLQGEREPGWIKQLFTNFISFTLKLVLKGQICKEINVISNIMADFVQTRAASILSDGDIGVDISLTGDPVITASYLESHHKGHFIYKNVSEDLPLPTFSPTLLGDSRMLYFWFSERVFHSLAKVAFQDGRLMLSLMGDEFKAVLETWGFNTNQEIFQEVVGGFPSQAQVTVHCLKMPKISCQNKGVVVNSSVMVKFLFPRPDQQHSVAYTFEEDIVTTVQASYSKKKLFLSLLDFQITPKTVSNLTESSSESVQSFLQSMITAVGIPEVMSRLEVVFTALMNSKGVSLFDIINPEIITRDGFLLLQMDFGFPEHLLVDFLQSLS

SMILES: CCOC(=O)N1c2ccc(C(F)(F)F)cc2[C@@H](N(Cc2cc(C(F)(F)F)cc(C(F)(F)F)c2)c2ncc(OCCCC(=O)[O-])cn2)C[C@H]1CC.CCOC(=O)N1c2ccc(C(F)(F)F)cc2[C@@H](N(Cc2cc(C(F)(F)F)cc(C(F)(F)F)c2)c2ncc(OCCCC(=O)[O-])cn2)C[C@H]1CC.[Ca+2] [Crystalline obicetrapib hemicalcium, reference compound]
- physical stability of solid form (XRPD) ([1]; 7 days, open vial): the result remains the same
- physical stability of solid form (XRPD) ([1]; one day, open vial): near total loss of crystallinity

SMILES: CCOC(=O)N1c2ccc(C(F)(F)F)cc2[C@@H](N(Cc2cc(C(F)(F)F)cc(C(F)(F)F)c2)c2ncc(OCCCC(=O)O)cn2)C[C@H]1CC [Amorphous obicetrapib hemicalcium]
- physical stability of solid form (XRPD) ([1]; 7 days, open vial): remained amorphous
- physical stability of solid form (XRPD) ([1]; 14 days): remained amorphous

SMILES: CCOC(=O)N1c2ccc(C(F)(F)F)cc2[C@@H](N(Cc2cc(C(F)(F)F)cc(C(F)(F)F)c2)c2ncc(OCCCC(=O)O)cn2)C[C@H]1CC [crystalline obicetrapib HCl, (2R,4S)-4-{[3,5-bis(trifluoromethyl)benzyl]-[5-(3-carboxypropoxy)pyrimidin-2-yl]amino}-2-ethyl-6-trifluoromethyl-3,4-dihydro-2H-quinoline-1-carboxylic acid ethyl ester hydrochloride]
- hygroscopicity [2]: hygroscopic
- solid form after drying (XRPD) [3]: changed the material from crystalline to amorphous

SMILES: CCOC(=O)N1c2ccc(C(F)(F)F)cc2[C@@H](N(Cc2cc(C(F)(F)F)cc(C(F)(F)F)c2)c2ncc(OCCCC(=O)O)cn2)C[C@H]1CC [obicetrapib, (2R,4S)-4-{[3,5 bis(trifluoromethyl)benzyl]-[5-(3-carboxypropoxy)pyrimidin-2-yl]amino}-2-ethyl-6-trifluoromethyl-3,4-dihydro-2H-quinoline-1-carboxylic acid ethyl ester]
- solubility in water [4]: less than 0.1 mg/mL
- serious side effects [5]: does not lead to serious side effects
- CETP inhibition [6]: near complete CETP inhibition
